Read-outs that look alike come from different tables or passages of the source.
Legend:
[1] = test system: human MCF-7 breast cancer cells; experiment: Cell viability (Alamar Blue) antiproliferative assay in MCF-7 cells; assay type: cell-based
Method: The human breast carcinoma cell line MCF-7, was purchased from the European Collection of Animal Cell Cultures (ECACC) and was cultured in Eagle’s minimum essential medium with 10% fetal bovine serum, 2 mM L-glutamine and 100 μg/mL penicillin/streptomycin. The medium was supplemented with 1% non-essential amino acids. The human breast carcinoma cell line MDA-MB-231 was purchased from the European Collection of Animal Cell Cultures (ECACC). MDA-MB-231 cells were maintained in Dulbecco’s modified Eagle’s medium (DMEM) supplemeted with 10% (v/v) fetal bovine serum, 2 mM L-glutamine and 100 μg/mL penicillin/streptomycin (complete medium). All media contained 100 U/mL penicillin and 100 μg/mL streptomycin. Triple negative breast cancer Hs578T cells and its invasive variant Hs578Ts(i)8 were obtained as a kind gift from Dr. Susan McDonnell, School of Chemical and Bioprocess Engineering, University College Dublin and were cultured in Dulbecco’s Modified Eagle’s Media (DMEM) with GlutaMAX^TM-I, with the same supplement as for MDA-MB-231 cells in the absence of non-essential amino acids. HEK-293T normal epithelial embryonic kidney cells were cultured in Dulbecco’s Modified Eagle’s Medium (DMEM) with GlutaMAX^TM-I in the absence of non-essential amino acids. K562 and HL-60 cells were originally obtained from the European Collection of Cell Cultures (Salisbury, UK).The K562 cells were derived from a patient in the blast crisis stage of CML HL-60 cells were derive from a patient with acute myeloid leukaemia. Cells were cultured in RPMI-1640 Glutamax medium supplemented with 10% FCS media, and 100 μg/mL penicillin/streptomycin. Cells were maintained at 37 °C in 5% CO2 in a humidified incubator. All cells were sub-cultured three times/week (adherent cells by trypsinisation).
Cells were seeded at a density of 5 × 10^3 cells/well (MCF-7), in triplicate in 96-well plates. After 24 h, cells were then treated with either medium alone, vehicle [1% ethanol (v/v)] or with serial dilutions of CA-4 or β-lactam analogue. Cell viability for MCF-7 and MDA-MB-231 was analysed using the Alamar Blue assay (Invitrogen Corp, Thermo Fisher Scientific, 168 Third Avenue, Waltham, MA, USA) according to the manufacturer’s instructions. After 72 h, Alamar Blue [10% (v/v)] was added to each well and plates were incubated for 3–5 h at 37 °C in the dark. Fluorescence was read using a 96-well fluorimeter with excitation at 530 nm and emission at 590 nm. Results were expressed as percentage viability relative to vehicle control (100%). Dose response curves were plotted and IC50 values (concentration of drug resulting in 50% reduction in cell survival) were obtained using the commercial software package Prism (GraphPad Software, Inc., 2365 Northside, Suite 560, San Diego, CA, USA). Experiments were performed in triplicate on at least three separate occasions.

[2] = test system: NCI 60 cell line panel; experiment: NCI60 cell line screen (SRB assay), whole panel or sub-panels; assay type: cell-based
From the text: The results are summarized in Tables S3–S5, Supplementary Information.
Table S5: NCI 60 cell line mean screening results for selected compounds NCI Ref. Compound GI50 TGI LC50 […]
a GI50 and LC50 are the mean concentrations required to inhibit the growth and kill 50 % of the cells over the total NCI 60 cell line panel in the assay respectively. […]
over the total NCI 60 cell line panel.

[3] = test system: SW-620; experiment: NCI60 screen (SRB), Colon Cancer; assay type: cell-based; settings: Homo sapiens
[4] = test system: SNB-75; experiment: NCI60 screen (SRB), CNS Cancer; assay type: cell-based; settings: Homo sapiens
[5] = test system: CAKI-1; experiment: NCI60 screen (SRB), Renal cancer; assay type: cell-based; settings: Homo sapiens
[6] = test system: OVCAR-4; experiment: NCI60 screen (SRB), Ovarian cancer; assay type: cell-based; settings: Homo sapiens
[7] = test system: MDA-MB-435; experiment: NCI60 screen (SRB), Melanoma; assay type: cell-based; settings: Homo sapiens
[8] = Plasma stability study; assay type: in vitro ADME, human; design: half-life: dose or concentration left out as unconfirmed; settings: 37 °C; for remaining after 6 h: human plasma
Method: Analytical high-performance liquid chromatography (HPLC) stability studies were performed using a Symmetry® column (C18, 5 µm, 4.6 × 150 mm), a Waters 2487 Dual Wavelength Absorbance detector, a Waters 1525 binary HPLC pump and a Waters 717 plus Autosampler (Waters Corporation, 34 Maple St, Milford, MA, USA). Samples were detected at wavelength of 254 nm. All samples were analysed using acetonitrile (80%) and water (20%) as the mobile phase over 10 min and a flow rate of 1 mL/min. Stock solutions were prepared by dissolving 5 mg of compound 7s, 17b and 17c in 10 mL of mobile phase. Phosphate buffers at the desired pH values (4, 7.4 and 9) were prepared in accordance with the British Pharmacopoeia monograph 2015. 30 µL of stock solution was diluted with 1 mL of appropriate buffer, shaken and injected immediately. Samples were withdrawn and analysed at time intervals of t = 0 min, 5 min, 30 min, 60 min, 90 min, 120 min, 24 h and 48 h. Plasma stability studies: 360 µL stock solution of compounds 7s, 17b and 17c were transferred to buffered plasma (plasma: buffer = 1:9, 4 mL in total) at 37 °C in screw cap container. Immediately a 250 µL aliquot was withdrawn and added to the Eppendorf tube containing 500 µL ZnSO4.7H2O solution (2% w/v ZnSO4 solution in acetonitrile: water, 1:1). The samples were then centrifuged at 10,000 rpm for 3 min and filtered through a 0.2-micron filter and injected according to the HPLC conditions listed above. Further samples were taken in the same manner every 1 h thereafter up to 6 h. A final sample was taken after 24 h. Whole blood stability studies. A 360 µL aliquot of stock solution of compounds 17b and 17c in acetonitrile was added in whole blood (4 mL, treated with 2% sodium citrate) at 37 °C and 300 µL aliquots were withdrawn at approptiate intervals. Samples were transferred to 1.5 mL Eppenddorf tubes containing 1 mL of ZnSO4. 7H2O solution (2% w/v ZnSO4 solution in acetonitrile: water, 1:1), vortexed and then centrifuged for 5 min at 14,000 rpm. The sample filtered through a 0.2-micron filter and injected according to the HPLC conditions listed above.

[9] = test system: K-562; experiment: NCI60 screen (SRB), Leukemia; assay type: cell-based; settings: Homo sapiens, K562
[10] = Homo sapiens, MCF7, Table S9, MCF-7 IC50 at which the toxicity was estimated, read-out: IC50, MCF-7
[11] = mean over the total NCI 60 cell line panel
[12] = mean over the total NCI 60 cell line panel, read-out: GI50 (mean)
[13] = mean over the total NCI 60 cell line panel, read-out: LC50 (mean)
[14] = over the full 60 cell line panel, read-out: mean GI50
[15] = MCF7, human MCF-7 breast cancer cells, 72 h, mean ± SEM, read-out: Antiproliferative Activity IC50
[16] = NCI60 Colon Cancer cell line SW-620, read-out: GI50
[17] = human, buffered plasma (plasma:buffer 1:9), plasma, read-out: half-life (t½)
[18] = NCI60 CNS Cancer cell line SNB-75, read-out: GI50
[19] = NCI60 Renal cancer cell line CAKI-1, read-out: GI50
[20] = NCI60 Ovarian cancer cell line OVCAR-4, read-out: GI50
[21] = Homo sapiens, MCF7, 72 h, human MCF-7 breast cancer cells, 72 h, mean ± SEM, read-out: Antiproliferative Activity IC50
[22] = NCI60 Melanoma cell line MDA-MB-435, read-out: GI50
[23] = NCI60 Leukemia cell line K-562, read-out: GI50

Row | Structure (SMILES) | IC50 [1, 10] [nM] | TGI (mean) [2, 11] [nM] | GI50 [2, 12] [nM] | CC50 [2, 13] [nM] | GI50 [2, 14] [nM] | GI50 ([3]; SW-620) [nM] | GI50 ([4]; SNB-75) [nM] | GI50 ([5]; CAKI-1) [nM] | GI50 ([6]; OVCAR-4) [nM] | IC50 [1, 15] [nM] | GI50 ([7]; MDA-MB-435) [nM] | GI50 ([2]; 60 cell, read-out: GI50 (mean)) [nM] | CC50 ([2]; 60 cell, read-out: LC50 (mean)) [nM] | GI50 ([2]; 60 cell, read-out: mean GI50) [nM] | GI50 [3, 16] [nM] | GI50 [4, 18] [nM] | GI50 [5, 19] [nM] | GI50 [6, 20] [nM] | IC50 [1, 21] [nM] | GI50 [7, 22] [nM] | other results
1 | COc1ccc(/C=C\c2cc(OC)c(OC)c(OC)c2)cc1O [CA-4, Combretastatin A-4, reference compound] | 5.2 | 10300 | 99.3 | 85500 | 99 |  |  |  |  |  |  |  |  |  |  |  |  |  |  |  | 
2 | C=CC1C(=O)N(c2cc(OC)c(OC)c(OC)c2)C1c1ccc(OC)cc1 (stereo not drawn) [Compound 7h, 4-(4-Methoxyphenyl)-1-(3,4,5-trimethoxyphenyl)-3-vinylazetidin-2-one] |  | 23440 |  |  |  | 40.2 | 37.2 | 392 | 77.6 | 20 ± 2.5 | 22.6 | 52.5 | 75900 | 52 |  |  |  |  |  |  | CC50 ([2]; 60 cell, read-out: LC50): > 100000 nM
3 | C=CC1C(=O)N(c2cc(OC)c(OC)c(OC)c2)C1c1ccc(OC)c(O)c1 (stereo not drawn) [Compound 7s, 4-[3-Hydroxy-4-methoxyphenyl]-1-(3,4,5-trimethoxyphenyl)-3-vinylazetidin-2-one] | 1.4 | 5890 |  |  |  |  |  |  |  |  |  | 22.9 | 74100 | 23 | < 10 | 15.3 | 40.2 | 13.1 | 8 ± 0.71 | < 10 | half-life at 41.3 µg/mL [8, 17]: > 24 h; GI50 ([2]; 60 cell): < 10 nM; CC50 ([2]; 60 cell, read-out: LC50): > 100000 nM
4 | C=CC1C(=O)N(c2cc(OC)c(OC)c(OC)c2)C1c1ccc(OC)c(N)c1 (stereo not drawn) [Compound 7t, 4-(3-Amino-4-methoxyphenyl)-1-(3,4,5-trimethoxyphenyl)-3-vinylazetidin-2-one] |  | 50120 |  |  |  | 40.5 | 30.1 | 32.9 | < 10 | 17 ± 1.8 | < 10 | 47.9 | 89100 | 48 |  |  |  |  |  |  | GI50 [9]: 37.2 nM
5 | C=CC1C(=O)N(c2cc(OC)c(OC)c(OC)c2)C1c1ccc(OC)c(OP(=O)(O)O)c1 (stereo not drawn) [Compound 17b, 2-Methoxy-5-(1-(3,4,5-trimethoxyphenyl)-4-oxo-3-vinylazetidin-2-yl)phenyl dihydrogen phosphate] |  | 36300 | 72.4 | 87100 |  |  |  |  |  |  |  |  |  |  | 55.2 | 36.5 | 71.7 | 160 | 27 ± 2 | 21 | remaining after 6 h [8]: 94%; half-life [8, 17]: > 24 h; GI50 [9, 23]: 41.5 nM
6 | CCC1C(=O)N(c2cc(OC)c(OC)c(OC)c2)C1c1ccc(OC)c(OP(=O)(O)O)c1 (stereo not drawn) [Compound 17c, 5-(3-Ethyl-1-(3,4,5-trimethoxyphenyl)-4-oxoazetidin-2-yl)-2-methoxyphenyl dihydrogen phosphate] |  | 43650 | 138 | 85100 | 73 |  |  |  |  |  |  |  |  |  | 37.9 | 23.7 | 35.2 | 168 | 21 ± 1.5 | 12.8 | remaining after 6 h [8]: 92%; half-life [8, 17]: > 24 h; GI50 [9, 23]: 35 nM
